Test results from PubChem BioAssay (NCI).
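Growth conditions: 96-well plates. Treatment: test compound, 48 hours, 5 concentrations. Analysis: linear interpolation between bracketing concentrations; unreached endpoints set to highest concentration. TGI: concentration producing complete growth inhibition.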

Key:
Assay in all cases: growth of human tumour cells (NCI), 48 h
[1] = test system: A498 renal
[2] = test system: OVCAR-8 ovarian
[3] = test system: RPMI-8226 leukemia
[4] = test system: MOLT-4 leukemia
[5] = test system: PC-3 prostate
[6] = test system: SN12C renal
[7] = test system: TK-10 renal
[8] = test system: HCC-2998 colon
[9] = test system: OVCAR-5 ovarian
[10] = test system: SF-295 CNS

Structure (SMILES)	TGI [1] [µM]	TGI [2] [µM]	TGI [3] [µM]	TGI [4] [µM]	TGI [5] [µM]	TGI [6] [µM]	TGI [7] [µM]	TGI [8] [µM]	TGI [9] [µM]	TGI [10] [µM]
C[C@]12CC[C@H](O)CC1=CC[C@@H]1[C@@H]2CC[C@]2(C)c3nc(Cl)ccc3C[C@@H]12	> 100	> 100	> 100	> 100	> 100	> 94.8	> 100	> 100	> 100	> 100
Cc1[nH]c(=O)nc2nc3ccc(Cl)cc3c(NC(C)(CO)CO)c12	> 100	> 100	> 100	> 100	> 100	> 100	> 100	> 100	> 100	> 100
NC(=O)C[C@H](NC(=O)C1(NC(=O)[C@H](Cc2ccc(CP(=O)(O)O)cc2)NC(=O)C(=O)O)CCCCC1)C(=O)NCCCc1cccc2ccccc12	> 10	> 10	> 10	> 10	> 10	> 10	> 10	> 10	> 10	> 10
CCOc1cc2c(cc1O)CC[C@@H]1[C@@H]2CC[C@]2(C)C(OS(=O)OC3CC[C@@H]4[C@H]5CCc6cc(O)c(OCC)cc6[C@@H]5CC[C@@]34C)CC[C@@H]12 (stereo not given in full)	36.6	10	13.9	> 68	24.9	28.9	> 100	31.9	> 57.8	22.5
Cc1nc2c(Cl)cc(Cl)cc2c(Cl)c1CCCl	> 100	> 100	> 100	> 100	> 100	> 100	> 100	> 100	> 100	> 100
CCCCC1(N=[N+]=[N-])C(=O)C2C=CC=C3c4ccccc4N(C1=O)C32 (stereo not given)	> 10	> 31.6	> 31.6	> 31.6	> 31.6	> 31.6	> 31.6	> 31.6	> 31.6	> 31.6
CCCC(=O)Nc1cc(/C=C/C(=O)N2CC(CCl)c3c2cc([N+](=O)[O-])c2ccccc32)n(C)c1 (stereo not given)	> 87.9	> 100	> 100	> 100	> 100	> 100	> 100	> 100	> 100	> 100
NC(=O)c1ncn2c(=O)n(CCl)nnc12	> 100	> 100	> 100	> 100	> 100	> 100	> 100	> 100	> 100	> 100
COC(=O)c1c(O)ccc2c1c1c(n2Cc2ccccn2)C(=O)c2ccccc2C1=O	> 100	> 100	> 100	> 100	> 100	> 100	> 100	35	> 100	70.6
COc1cc(/C=c2/c3ccccc3n3c2cc(-c2ccccc2)[n+]3C)cc(OC)c1OC	> 58.3	12.9	> 32.1	> 64.9	14.6	12	17.4	19	21.4	19.2
CC(C)=CCCC1(Sc2ccccc2)C(=O)OCC1C=C(C)C (stereo not given)	> 100	> 100	48.1	20.4	> 100	46.1	> 100	> 100	59	> 100
CCNc1cc2c3c(c1)CCCN3CCC2	65.3	56.4	57.1	50.6	35.6	8.63	> 100	70.8	45.1	32.3
COP(=O)(OC)c1ccc(NCc2cc(O)ccc2O)cc1	> 100	> 71.2	62.4	> 86.3	> 100	> 70.6	53.9	51.6	> 60.1	35.2
O=C(CCc1ccc(O)c(O)c1)NCCc1ccc(O)c(O)c1	> 100	32.4	> 100	> 100	> 100	> 100	> 100	> 100	> 100	> 100
COc1nc2ccc(CNc3ccc(C(=O)O)cc3)cc2nc1OC	> 10	> 10	> 10	> 10	> 10	> 10	> 10	> 10	> 10	> 10
COc1ccc2oc(=Nc3ccc(F)cc3)c(C(N)=O)cc2c1	58.7	> 100	> 100	> 100	> 100	> 100	58	> 100	> 100	> 100
Cn1c(N=[N+]=[N-])cc(=O)n(C)c1=O	> 100	> 100	> 100	> 100	> 100	> 100	> 100	> 100	> 100	> 100
